{"source": "paper PMC8875894", "about": "“Dabigatran Acylglucuronide, the Major Metabolite of Dabigatran, Shows a Weaker Anticoagulant Effect than Dabigatran” (Pharmaceutics, 2022)", "target": "T1, thrombin (Homo sapiens, UniProt P00734)", "T1 construct": "gene F2", "test": "thrombin generation assay in human plasma (fluorogenic Z-Gly-Gly-Arg-AMC, AUC); thrombin time prolonged", "data": [{"compound": "Cn1c(CNc2ccc(C(=N)N)cc2)nc2cc(C(=O)N(CCC(=O)O[C@@H]3O[C@H](C(=O)O)[C@@H](O)[C@H](O)[C@H]3O)c3ccccn3)ccc21", "note": "[DABG, dabigatran acylglucuronide]", "values": [{"measurement": "IC50", "result": 0.435, "unit": "µM"}]}]}
